From patent US11819476B2, “Rapamycin analogs and uses thereof” (Janssen Pharmaceutica NV, priority 2019, dated 2023)
“Also recorded” adds a separate entry of the source.

Legend:
Type in all cases: cell-based
[1] = tested on: pAkt S473 in PC3 cells (mTORC2); experiment: Western blot based pAKT assay (mTORC2 pathway); conditions: 24 hours
Protocol: (§1) Example 76: Western Blot Based pS6K1 and pAKT Assay at 24 and 48 Hour Timepoints
Assay Protocol: • 1. Seed six well plate with 500,000 PC3 cells per well and incubate for […]. • 2. Add compounds into the cell plate. Incubate for 24 to 48 hours. • 4. Plate is placed on ice and the media is removed via aspiration. The wells are washed with 1 mL of 1×PBS and then fully aspirated. • 5. 110 μL of 1% Triton Lysis Buffer is added and each well is scraped vigorously. • 6. Cell homogenates are transferred to 1.5 mL eppendorf tubes on ice and spun down at 4° C. for 10 minutes at 10,000 rpm. • 7. Protein concentration of resulting cell lysates were quantified utilizing a Bradford assay and the samples run analyzed via Western blot on 4-12% Bis/Tris gels with 1×MES buffer. • 8. The gels were transferred onto membranes at 50V for 100 minutes, blocked with Odyssey Blocking buffer for 30 minutes then incubated overnight with primary antibody (pS6K1 T389 Rabbit or pAkt S473 Rabbit) overnight at 4° C. on a rotator. • 9. […]
The methods employed were substantially similar to those described above. Compounds were evaluated in PC3 cells. […] Cells are incubated with compounds of the present invention for various time periods (e.g., 5 minutes, 15 minutes, 30 minutes, 90 minutes, 24 hours, or 48 hours), and evaluated according to known methodologies, such as those herein described.

pS6K1 in MCF7 = experiment: AlphaLISA Ultra pS6K1 Assay; conditions: Homo sapiens, 1.5 h; MCF7 cells, 90 min incubation
Method in brief: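 MCF-7 cells treated with compounds for 90 min (0.5% DMSO final), then lysed and frozen at −80° C. Phospho-S6K1 in lysate measured by AlphaLISA Ultra with acceptor then donor beads, 2 h each.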

mTORC1 over mTORC2 = experiment: mTORC1 selectivity over mTORC2 at 24 hrs (pS6K1 and pAKT assays); conditions: selectivity for mTORC1 over mTORC2 at 24 hrs
Protocol: as §1
(§2) Assay Protocol: • 1. Seed six well plate with 500,000 PC3 cells per well and incubate for […]. • 2. Add compounds into the cell plate. Incubate for 24 to 48 hours. • 4. Plate is placed on ice and the media is removed via aspiration. The wells are washed with 1 mL of 1×PBS and then fully aspirated. • 5. 110 μL of 1% Triton Lysis Buffer is added and each well is scraped vigorously. • 6. Cell homogenates are transferred to 1.5 mL eppendorf tubes on ice and spun down at 4° C. for 10 minutes at 10,000 rpm. • 7. Protein concentration of resulting cell lysates were quantified utilizing a Bradford assay and the samples run analyzed via Western blot on 4-12% Bis/Tris gels with 1×MES buffer. • 8. The gels were transferred onto membranes at 50V for 100 minutes, blocked with Odyssey Blocking buffer for 30 minutes then incubated overnight with primary antibody (pS6K1 T389 Rabbit or pAkt S473 Rabbit) overnight at 4° C. on a rotator. • 9. The membranes were washed 3× with TBS-T with a 5 minute incubation between each wash then incubated with secondary antibody (LiCor IRDye 800 Donkey Anti Rabbit) for at least 30 minutes. • 10. The membranes were washed 3× with TBS-T with a 5 minute incubation between each wash. • 11. The gels were then incubated for 5 minutes with PBS at room temperature then imaged using a Li-Cor.
The compound numbers correspond to the compound numbers in Table 1.
Compounds that are not selective at the 24 hrs mark are indicated by “NO” in the “mTORC1 selective @ 24 hrs” column of Table 4. Compounds that partially retain selectivity for mTORC1 inhibition over mTORC2 are indicated by “Partial” in the “mTORC1 selective @ 24 hrs” column of Table 4.

[2] = tested on: pS6K1 T389 in PC3 cells (mTORC1 pathway); experiment: Western blot based pS6K1 assay (mTORC1 pathway); conditions: 24 hours
Protocol: as §1, §2
PC3 cells were treated with everolimus (0.1 μM, 0.01 μM, and 0.001 μM) or I-9 ([…], 0.1 μM, 0.01 μM, and 0.001 μM) for 24 hours.
The methods employed were substantially similar to those described above. Compounds were evaluated in PC3 cells. Additional cell lines that may be used include Jurkat cells, wild-type mouse embryotic fibroblast (MEF) cells, tuberous sclerosis 2 (TSC2) negative (TSC−/−) MEF cells, and tuberous sclerosis 2 (TSC2) positive (TSC+/+) MEF cells. Cells are incubated with compounds of the present invention for various time periods (e.g., 5 minutes, 15 minutes, 30 minutes, 90 minutes, 24 hours, or 48 hours), and evaluated according to known methodologies, such as those herein described.

Row | IC50 (pS6K1 in MCF7) | SMILES | inhibition of mTORC2 (Akt phosphorylation, pAkt, Western blot) [1] | mTORC1 selective @ 24 hrs (mTORC1 over mTORC2) | inhibition of the mTORC1 pathway (pS6K1, Western blot) [2]
1 | 100 to 1000 pM | CO[C@@H]1C[C@H](C[C@@H](C)[C@@H]2CC(=O)[C@H](C)/C=C(\C)[C@@H](O)[C@@H](OC)C(=O)[C@H](C)C[C@H](C)/C=C/C=C/C=C(\C)[C@@H](OCCOC3COC3)C[C@@H]3CC[C@@H](C)[C@@](O)(O3)C(=O)C(=O)N3CCCC[C@H]3C(=O)O2)CC[C@H]1OCCO [Example I-9, (23E,25E,27E,28E,34R,35S,36R,37R,39S,41S,43S,44S,46R,47R,56R)-46,56-dihydroxy-44-[(1R)-2-[(1S,3R,4R)-4-(2-hydroxyethoxy)-3-methoxy-cyclohexyl]-1-methyl-ethyl]-47-methoxy-34,35,36,37,48,49-hexamethyl-43-[2-(oxetan-3-yloxy)ethoxy]-67,68-dioxa-57-azatricyclohexatriaconta-23,25,27(48),28(49)-tetraene-50,51,52,53,54-pentone] | did not reduce | Yes | reduction in pS6K1; also recorded: moderate concentration dependent inhibition
2 | 100 to 1000 pM | CO[C@@H]1C[C@H](C[C@@H](C)[C@@H]2CC(=O)[C@H](C)/C=C(\C)[C@@H](O)[C@@H](OC)C(=O)[C@H](C)C[C@H](C)/C=C/C=C/C=C(\C)[C@@H](OCCCO)C[C@@H]3CC[C@@H](C)[C@@](O)(O3)C(=O)C(=O)N3CCCC[C@H]3C(=O)O2)CC[C@H]1O [Example I-36, (21E,23E,25E,26E,31R,32S,33R,34R,36S,38S,40S,41S,42S,43R,52R)-42,52-dihydroxy-41-[(1R)-2-[(1S,3R,4R)-4-hydroxy-3-methoxy-cyclohexyl]-1-methyl-ethyl]-40-(3-hydroxypropoxy)-43-methoxy-31,32,33,34,44,45-hexamethyl-63,64-dioxa-53-azatricyclohexatriaconta-21,23,25(44),26(45)-tetraene-46,47,48,49,50-pentone] |  | Yes | 
3 |  | CO[C@H]1C[C@@H]2CC[C@@H](C)[C@@](O)(O2)C(=O)C(=O)N2CCCC[C@H]2C(=O)O[C@H]([C@H](C)C[C@@H]2CC[C@@H](OCCO)[C@H](OC)C2)CC(=O)[C@H](C)/C=C(\C)[C@@H](O)[C@@H](OC)C(=O)[C@H](C)C[C@H](C)/C=C/C=C/C=C/1C [everolimus, reference compound] | inhibition of S6K1 phosphorylation (S^473) |  | reduction in pS6K1; also recorded: strong inhibition
